Data on 104 compounds can be found in PubChem BioAssay AID1996.

Structures are written as SMILES. ≈ marks a conversion by molar mass, not a printed value.

The conditions of this data set: buffer; pH 7.4; 200.0 µM.
Compound `COC(=O)Cc1nc(Nc2ccccc2)sc1C` yielded a solubility (kinetic) of 34.3 µg/mL (≈ 131 µM). The value for `Cc1cc(C)n(-c2cccc(C(=O)O)c2)n1` was over 32.4 µg/mL; that for `CCCc1cc(=O)[nH]c(SCC(=O)Nc2cc(S(=O)(=O)N(CC)c3ccccc3)ccc2Cl)n1` was 9.8 µg/mL (≈ 18.8 µM); that for `CCSc1ccccc1C(=O)Nc1ccc2c(c1)OCO2` was 13.8 µg/mL (≈ 45.8 µM).

`CCc1cccc(NC(=O)C(NC(=O)C2CCCCC2)C(C)C)c1` (centres undefined) displayed a kinetic solubility of 0.6 µg/mL (≈ 1.82 µM). The value for `O=C(NCCS(=O)(=O)N1CCCC1)c1ccccc1` was over 42.4 µg/mL; that for `O=C(COC(=O)c1cccs1)Nc1ccccc1Cl` was 2.3 µg/mL (≈ 7.78 µM); that for `CC(Sc1nncs1)C(=O)Nc1ccc(S(=O)(=O)Nc2ncccn2)cc1` (centres undefined) was over 63.4 µg/mL.

In turn, `Cc1ccc(C(=O)NCC(=O)N2CCCCCC2)cc1` yielded a solubility (kinetic) of over 41.2 µg/mL. In the case of `COc1ccc(CCNC(=O)Cc2ccc([N+](=O)[O-])cc2)cc1OC`, the kinetic solubility turned out to be 51.3 µg/mL (≈ 149 µM). The value for `O=S1(=O)CC(O)C(N(CCO)C(=S)Nc2ccccc2)C1` (centres undefined) was 46.2 µg/mL (≈ 140 µM); that for `O=C(Nc1cccc([N+](=O)[O-])c1)N1CCc2ccccc2C1` was 28.6 µg/mL (≈ 96.2 µM); that for `Cn1cnc2c(cnn2-c2ccccc2)c1=O` was over 33.9 µg/mL. Take `Cc1ccc2nc(Cn3cc(C(F)(F)F)ccc3=O)cc(=O)n2c1`: the solubility (kinetic) amounted to 47.4 µg/mL (≈ 141 µM). With `Cc1cc(OCC(=O)Nc2ccncc2)ccc1Cl` the figure was 40.6 µg/mL (≈ 147 µM). With `Cn1ncc([N+](=O)[O-])c1C(=O)NC1CCCCC1` the figure was over 37.8 µg/mL; with `CC(C(=O)NCC1CCCCC1)N1CCc2ccccc2C1` (centres undefined), 41.9 µg/mL (≈ 139 µM). With `O=C(NCCNC(=O)c1ccccc1Cl)c1ccco1` the figure was 39.7 µg/mL (≈ 136 µM); with `COc1ccc(C(=O)NCC(=O)N2CCCCC2)cc1OC`, over 46 µg/mL. On to `Cc1ccc(S(=O)(=O)N2CCN(C3CC(=O)N(c4ccc(F)cc4)C3=O)CC2)cc1C` (centres undefined), for which the kinetic solubility stood at 52.5 µg/mL (≈ 118 µM).

The compound `O=C(Nc1ccc(F)cc1F)c1cc(Cl)sc1Cl` displayed a solubility (kinetic) of under 0.7 µg/mL.

Regarding `Cc1ccc(C(=O)NCCNC(=O)COc2ccc(Cl)cc2)cn1`, the kinetic solubility was over 52.2 µg/mL.

Compound `O=C(/C=C\c1ccccc1)Oc1cccc2cccnc12` showed a kinetic solubility of 17.3 µg/mL (≈ 62.8 µM).

`O=C(COC(=O)C1(c2cccc(F)c2)CCCC1)NCc1cccs1` gave a solubility (kinetic) of 16.2 µg/mL (≈ 44.8 µM).

With `O=C(NCCc1ccccc1)C1CC(=O)N(C2CCCCC2)C1` (centres undefined), the kinetic solubility was over 47.2 µg/mL. Consider `Cc1ccc(N2C(=O)CCC(C(=O)O)C2c2cccs2)cc1` (centres undefined), for which the solubility (kinetic) was 46.3 µg/mL (≈ 147 µM). In the case of `CC(=O)NS(=O)(=O)c1ccc(NC(=O)C(C)NS(=O)(=O)/C=C/c2ccccc2)cc1` (centres undefined), the kinetic solubility is 63.3 µg/mL (≈ 140 µM). With `Cc1ccc(-c2onc3ccc(Br)cc23)cc1` the figure was under 0.6 µg/mL. For the compound `Cc1cccc(NC(=O)Nc2ccc(Cl)cc2)n1`, the solubility (kinetic) was under 0.2 µg/mL. The value for `OCC1OC(Oc2c[nH]c3ccccc23)C(O)C(O)C1O` (centres undefined) was over 44.3 µg/mL.

Compound `CCS(=O)(=O)N1CCC(C(=O)Oc2ccccc2Cl)CC1` had a kinetic solubility of 46 µg/mL (≈ 139 µM). On to `O=P(C(Cl)Cl)(N1CCOCC1)N1CCOCC1`, for which the solubility (kinetic) was over 45.5 µg/mL.

Regarding `COc1ccc(Cl)cc1NC(=O)c1cc(C)no1`, the kinetic solubility turned out to be 5.7 µg/mL (≈ 21.4 µM).

As for `CCc1nnc(NC(=O)CN2CCCC(C)C2)s1` (centres undefined), the solubility (kinetic) is over 40.3 µg/mL. With `CC(=O)C1=C(O)C(=O)N(Cc2ccccc2)C1c1ccc(Cl)cc1` (centres undefined) the figure was over 51.3 µg/mL; with `CCCCCOc1ccc(C(=O)CCC(=O)NC(C)c2ccc(S(N)(=O)=O)cc2)cc1` (centres undefined), 10.9 µg/mL (≈ 24.4 µM). The value for `CC(NC(=S)N1CCN(c2ccccc2)CC1)c1ccccc1` (centres undefined) was 0.4 µg/mL (≈ 1.23 µM); that for `Cl.NCCS` was over 17 µg/mL. The value for `Nc1ccc(S(=O)(=O)NC(Cc2ccccc2)C(=O)O)cc1` (centres undefined) was 32.9 µg/mL (≈ 103 µM); that for `COc1ccccc1Nc1c2c(nc3ccccc13)CCC2` was 37.4 µg/mL (≈ 129 µM). `COC(=O)C(Cc1ccccc1)NC(=O)CC(C)CC(=O)Nc1ccc(C)cc1` (centres undefined) yielded a kinetic solubility of 14.3 µg/mL (≈ 36.1 µM). The value for `CCOC(=O)c1ccc(NC(=O)N2CCc3ccccc3C2)cc1` was 19.2 µg/mL (≈ 59.2 µM); that for `NC(=O)CSc1ccc(S(=O)(=O)N2CCOCC2)cn1` was over 47.6 µg/mL; that for `Cc1ccc(C)n1-c1ccc(C#N)cn1` was 26.6 µg/mL (≈ 135 µM). Turning to `O=C(Nc1ccc(F)cc1)c1ccccc1NC(=O)C1CC=CCC1C(=O)O` (centres undefined), the kinetic solubility is over 57.4 µg/mL. `CCn1c(=O)c2c(nc(SCC(=O)N3CCC(C)CC3)n2C)n(C)c1=O`: the solubility (kinetic) was over 56.9 µg/mL. The value for `Cl.Clc1ccc(-c2ccc(CNCC3CCCO3)o2)cc1` (centres undefined) was over 49.2 µg/mL; that for `Cc1nc(NC(=O)C2CC2)sc1C(=O)Nc1ccccc1Cl` was 2.1 µg/mL (≈ 6.25 µM); that for `CCOC(=O)C(=CNc1cc(C)ccc1[N+](=O)[O-])C(=O)OCC` was under 0.3 µg/mL. Take `Cc1cccc(COC(=O)C(Cc2ccccc2)NC(N)=O)c1` (centres undefined): the kinetic solubility is over 46.9 µg/mL. The value for `CS(=O)(=O)N1CCCC(C(=O)Nc2ccccc2F)C1` (centres undefined) was over 45.1 µg/mL. With `NC(=O)NNC(=S)Nc1cccc2ccccc12` the figure was over 39 µg/mL; with `Cc1nn(C)cc1S(=O)(=O)NCc1ccc2c(c1)OCO2`, over 46.4 µg/mL; with `Cc1ccc(C(=O)O/N=C(\N)Cc2cccc3ccccc23)cc1`, 0.5 µg/mL (≈ 1.57 µM).

On to `CC1(C2CC(C(F)(F)F)n3nc(C(=O)O)cc3N2)CC1` (centres undefined), for which the kinetic solubility is over 43.4 µg/mL. With `Cc1ccc(OCc2ccccc2Br)c([N+](=O)[O-])n1` the figure was 1.7 µg/mL (≈ 5.26 µM); with `CCCCNC(=S)Nc1ccc(F)cc1`, 30.1 µg/mL (≈ 133 µM); with `COC(=O)CC1=NN(c2nc3ccccc3s2)C(=O)/C1=C/N(C)C`, over 51.7 µg/mL.

In turn, `Fc1ccc(Nc2ccnc(C(F)(F)F)c2)cc1` gave a kinetic solubility of 25.7 µg/mL (≈ 100 µM).

The compound `Cc1ccc(S(=O)(=O)NCC(=O)OCCOc2ccc(Br)cc2)cc1` displayed a solubility (kinetic) of 3.8 µg/mL (≈ 8.87 µM). Against the preceding compound, the solubility kinetic is about 6.8-fold lower. `Nc1nc(NCc2ccco2)nc(NCCO)c1[N+](=O)[O-]`: the kinetic solubility is over 44.1 µg/mL. `O=c1[nH]c([O-])c(Cc2ccc3c(c2)OCO3)c(=O)[nH]1.[NH4+]` had a kinetic solubility of 29.7 µg/mL.

With `O=C(Oc1ccccc1)N1CCN(C(=O)c2ccco2)CC1`, the kinetic solubility is over 45 µg/mL. For the compound `Cc1ccc(C2CCN(C(=O)Nc3ccc(F)cc3)C2)cc1` (centres undefined), the solubility (kinetic) came out at 1.7 µg/mL (≈ 5.7 µM).

Take `CC(OC(=O)c1ccc2c(c1)S(=O)(=O)c1ccccc1C2=O)C(N)=O` (centres undefined): the solubility (kinetic) was 29.3 µg/mL (≈ 81.5 µM). With `C/C(Cl)=C\Cn1c(N2CCCC2)nc2c1c(=O)n(C)c(=O)n2C`, the solubility (kinetic) worked out at 40.9 µg/mL (≈ 121 µM). The solubility kinetic values of the last two compounds are within 1.5-fold of each other.

Compound `CSc1ccc(CN2CCSCC2)cc1` yielded a solubility (kinetic) of 17 µg/mL (≈ 71 µM). Compared with the last compound, the solubility kinetic is about 2.4-fold lower. The value for `Cc1nc2ccccc2c(N)c1C(=O)/C=C/c1ccccc1` was over 43.3 µg/mL; that for `O=C(O)c1cc(-c2ccc(Cl)c(Cl)c2)n(-c2ccccc2)n1` was over 50 µg/mL; that for `CC1(C)CC(=O)C(C2=NC3(CCCCCC3)Cc3ccccc32)=C(O)C1` was 49.8 µg/mL (≈ 142 µM). The compound `CC1CC(C(=O)Nc2ccccc2)C(=O)O1` (centres undefined) returned a kinetic solubility of 27.2 µg/mL (≈ 124 µM). As for `CC1(C2CC2)NC(=O)N(CC(=O)N2CCN(c3cccc(C(F)(F)F)c3)CC2)C1=O` (centres undefined), the solubility (kinetic) stood at 21.6 µg/mL (≈ 50.9 µM). `O=C(COC(=O)Cc1ccsc1)Nc1ccccc1Cl`: the solubility (kinetic) was over 46.5 µg/mL. With `O=C(Cn1c(CO)nc2ccccc21)NCCc1ccc(F)cc1` the figure was 36.7 µg/mL (≈ 112 µM). The compound `CCCN1C2CCCC1CC(NC(=O)c1cccc([N+](=O)[O-])c1)C2` (centres undefined) had a solubility (kinetic) of over 49.7 µg/mL. With `COc1ccc(-n2c(=S)[nH]c3sc(-c4ccccc4)cc3c2=O)c(OC)c1` the figure was 1.7 µg/mL (≈ 4.29 µM); with `CCOc1ccc(C(=O)Nc2ccc(CN3CCOCC3)cc2)cc1Cl`, 27.5 µg/mL (≈ 73.4 µM); with `Cc1noc(C)c1COC(=O)/C=C/c1ccc(Cl)cc1`, 6.4 µg/mL (≈ 21.9 µM).

Regarding `CC12CN3CCN(CC(C3)/C1=N\NC(=O)Nc1cccc(Cl)c1)C2`, the solubility (kinetic) was over 52.2 µg/mL.

With `CCN1CCN(CCC(=O)Nc2ccc(F)c(F)c2)CC1`, the kinetic solubility was over 44.6 µg/mL. `O=C(COc1ccccc1Cl)NCc1ccccc1` yielded a solubility (kinetic) of 20.6 µg/mL (≈ 74.7 µM).

As to `CCOc1ccc(S(=O)(=O)NCc2cccnc2)cc1`, the kinetic solubility is over 43.9 µg/mL. Turning to `COc1cccc(CC(=O)OCC(=O)NCc2ccc3c(c2)OCO3)c1`, the solubility (kinetic) was over 53.6 µg/mL.

The compound `CCOC(=O)c1cc(-c2csc(Nc3ccccc3Cl)n2)on1` returned a kinetic solubility of 0.6 µg/mL (≈ 1.72 µM).

For `COc1ccc(NC(=O)c2ccccc2C)cc1`, the kinetic solubility is 27.1 µg/mL (≈ 112 µM). `CC1CC(C)CN(S(=O)(=O)c2cccc3nsnc23)C1` (centres undefined) gave a kinetic solubility of 8.4 µg/mL (≈ 27 µM). The value for `Cc1nc(SCc2ccccc2)c2oc3ccccc3c2n1` was under 0.3 µg/mL; that for `COc1cc(/C=C2/SC(=O)NC2=O)ccc1OCc1ccccc1` was under 0.7 µg/mL; that for `O=C(N/N=C/c1ccoc1)c1ccc(Cl)cc1Cl` was over 42.5 µg/mL. With `Cc1cccn2c(=O)c(C=O)c(N3CC(C)OC(C)C3)nc12` (centres undefined) the figure was over 45.2 µg/mL. `CC1CN(C(=O)CS(=O)(=O)Cc2ccccc2)CC(C)O1` (centres undefined) displayed a kinetic solubility of over 46.7 µg/mL. For the compound `C=CCN(Cc1ccc(OC)c(OC)c1)C(=O)N1CCOCC1`, the solubility (kinetic) was over 48.1 µg/mL. With `Cc1ccc(C(=O)c2nccn2C)cc1C` the figure was over 32.1 µg/mL; with `O=C1COc2ccc(C(=O)COC(=O)Cc3ccccc3F)cc2N1`, 24 µg/mL (≈ 69.9 µM). With `COc1ccc(CCNC(=O)COC(=O)c2cncc(Br)c2)cc1OC` the figure was over 63.5 µg/mL; with `CC(C)(C)N1CC(C(=O)Nc2ccc(S(N)(=O)=O)cc2)CC1=O` (centres undefined), over 50.9 µg/mL; with `N#Cc1ccc(NC(=O)C2=COCCO2)cc1`, over 34.5 µg/mL. With `Cc1ccc(/C(=N/Nc2ncnc3ccccc23)C(=O)O)cc1` the figure was over 45.9 µg/mL; with `O=C(CN1CCOCC1)Nc1cccc([N+](=O)[O-])c1`, 36.3 µg/mL (≈ 137 µM); with `Cc1cc(F)ccc1NC(=S)NC1CCCC1`, 37.2 µg/mL (≈ 147 µM).

In turn, `CCC(=O)Nc1ccc(N/C(N)=N/c2nc(C)cc(C)n2)cc1` yielded a kinetic solubility of 36.1 µg/mL (≈ 116 µM). With `O=C(CCc1nc(-c2ccccc2Cl)no1)NCc1ccco1` the figure was over 49.8 µg/mL; with `COC(=O)C1CN(C(=O)COc2ccc(C)cc2)c2ccccc2O1` (centres undefined), 49.1 µg/mL (≈ 144 µM).

Turning to `S=C(NC1CC1)N1CCCc2ccccc21`, the solubility (kinetic) came out at 33 µg/mL (≈ 142 µM).

For orientation: kinetic solubility means solubility judged after dilution from a stock solution rather than from solid.
